Measurements from patent US9199984B2, “Inhibition of enzymes” (CHIESI FARMACEUTICI S.p.A., priority 2012, dated 2015).
Structures can show the parent of a compound that is named as a salt.

The compounds below were run against T1, human neutrophil elastase (HNE) (Homo sapiens, UniProt P08246) (assay: HNE enzyme activity assay). Settings: human leukocyte elastase, substrate MeOSuc-Ala-Ala-Pro-Val-AMC 100 μM, 25° C. for 30 minutes, fluorescence; read-out: HNE inhibition.
T1 construct: purchased Sigma E8140
T1 sequence (P08246 30-247 limits assumed): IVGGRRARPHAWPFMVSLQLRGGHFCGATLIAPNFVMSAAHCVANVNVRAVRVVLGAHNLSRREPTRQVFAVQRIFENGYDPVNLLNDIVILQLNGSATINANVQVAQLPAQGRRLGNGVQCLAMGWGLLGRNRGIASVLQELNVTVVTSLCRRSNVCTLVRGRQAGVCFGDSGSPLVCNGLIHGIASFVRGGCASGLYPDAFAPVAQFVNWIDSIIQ
Assay type: biochemical
Experimental: Compounds of the present invention were tested for potency in a human neutrophil elastase (HNE) enzyme activity assay.
Assays were performed in 96-well plates in a total assay volume of 100 μl. The final concentration of elastase enzyme (human leukocyte elastase, Sigma E8140) was 0.0036 units/well […]. The peptide substrate (MeOSuc-Ala-Ala-Pro-Val-AMC, Calbiochem #324740) was used at a final concentration of 100 μM. The final concentration of DMSO was 1% in the assay buffer (0.05M Tris.HCl, 0.1M NaCl, 0.1M CaCl2, 0.0005% brij-35, pH 7.5). The enzymatic reaction was started by addition of the enzyme and incubated at 25° C. for 30 minutes. After incubation, the reaction was stopped by addition of soybean trypsin inhibitor (Sigma T9003) at a final concentration of 50 μg/well. Fluorescence was measured using a Molecular Devices fluorescence plate reader using 380 nm excitation and 460 nm emission wavelengths.
A dose response to each compound was performed and the effect of compound in each experiment was expressed as a percentage inhibition of the control enzyme fluorescence. Dose response curves were plotted and compound potency (IC50) was determined. Compounds were tested in at least two separate experiments.

IC50, < 0.02 µM:
Cc1c(-c2ccnn2-c2ccc(C#N)cc2)cn2nc(NC(=O)CC[S+](C)[O-])nc2c1-c1cccc(C(F)(F)F)c1 (stereo not shown) [Example 45, N-[6-[2-(4-Cyano-phenyl)-2H-pyrazol-3-yl]-7-methyl-8-(3-trifluoromethyl-phenyl)[1,2,4]triazolo[1,5-a]pyridin-2-yl]-3-methanesulfinyl-propionamide]
Cc1c(-c2ccnn2-c2ccc(C#N)cc2)cn2nc(NC(=O)CCS(C)(=O)=O)nc2c1-c1cccc(C(F)(F)F)c1 [Example 46, N-[6-[2-(4-Cyano-phenyl)-2H-pyrazol-3-yl]-7-methyl-8-(3-trifluoromethyl-phenyl)-[1,2,4]triazolo[1,5-a]pyridin-2-yl]-3-methanesulfonyl-propionamide]
Cc1c(-c2ccnn2-c2ccc(C#N)cc2)cn2nc(NCCCS(C)(=O)=O)nc2c1-c1cccc(C(F)(F)F)c1 [Example 47, 4-{5-[2-(3-Methanesulfonyl-propylamino)-7-methyl-8-(3-trifluoromethyl-phenyl)-[1,2,4]triazolo[1,5-a]pyridin-6-yl]-pyrazol-1-yl}-benzonitrile]
Cc1c(-c2ccnn2-c2ccc(C#N)cc2)cn2nc(NCCO)nc2c1-c1cccc(C(F)(F)F)c1 [Example 48, 4-{5-[2-(2-Hydroxy-ethylamino)-7-methyl-8-(3-trifluoromethyl-phenyl)-[1,2,4]triazolo[1,5-a]pyridin-6-yl]-pyrazol-1-yl}-benzonitrile]
Cc1c(-c2ccnn2-c2ccc(C#N)cc2)cn2nc(NCC(C)O)nc2c1-c1cccc(C(F)(F)F)c1 (stereo not shown) [Example 49, 4-{5-[2-(2-Hydroxy-propylamino)-7-methyl-8-(3-trifluoromethyl-phenyl)-[1,2,4]triazolo[1,5-a]pyridin-6-yl]-pyrazol-1-yl}-benzonitrile]
Cc1c(-c2ccnn2-c2ccc(C#N)cc2)cn2nc(NC(=O)NC3CCNCC3)nc2c1-c1cccc(C(F)(F)F)c1 [Example 50, 1-[6-[2-(4-Cyano-phenyl)-2H-pyrazol-3-yl]-7-methyl-8-(3-trifluoromethyl-phenyl)-[1,2,4]triazolo[1,5-a]pyridin-2-yl]-3-piperidin-4-yl-urea]
Cc1c(-c2ccnn2-c2ccc(C#N)cc2)cn2nc(NC(=O)NC3CCN(C)CC3)nc2c1-c1cccc(C(F)(F)F)c1 [Example 51, (1-Methyl-4-piperidyl)[6-[2-(4-cyano-phenyl)-2H-pyrazol-3-yl]-7-methyl-8-(3-trifluoromethyl-phenyl)-[1,2,4]triazolo[1,5-a]pyridin-2-yl]-urea]
CCNC(=O)Nc1nc2c(-c3cccc(C(F)(F)F)c3)c(C)c(-c3ccnn3-c3ccc(C#N)cc3)cn2n1 [Example 52, 1-[6-[2-(4-Cyano-phenyl)-2H-pyrazol-3-yl]-7-methyl-8-(3-trifluoromethyl-phenyl)-[1,2,4]triazolo[1,5-a]pyridin-2-yl]-3-ethyl-urea]
Cc1c(-c2ccnn2-c2ccc(C#N)cc2)cn2nc(NCCCO)nc2c1-c1cccc(C(F)(F)F)c1 [Example 53, 4-{5-[2-(3-Hydroxy-propylamino)-7-methyl-8-(3-trifluoromethyl-phenyl)-[1,2,4]triazolo[1,5-a]pyridin-6-yl]-pyrazol-1-yl}-benzonitrile]
Cc1c(-c2ccnn2-c2ccc(C#N)cc2)cn2nc(NCCCCO)nc2c1-c1cccc(C(F)(F)F)c1 [Example 54, 4-{5-[2-(4-Hydroxy-butylamino)-7-methyl-8-(3-trifluoromethyl-phenyl)-[1,2,4]triazolo[1,5-a]pyridin-6-yl]-pyrazol-1-yl}-benzonitrile]
Cc1c(-c2ccnn2-c2ccc(C#N)cc2)cn2nc(NC(=O)CCC(=O)O)nc2c1-c1cccc(C(F)(F)F)c1 [Example 55, N-[6-[2-(4-Cyano-phenyl)-2H-pyrazol-3-yl]-7-methyl-8-(3-trifluoromethyl-phenyl)-[1,2,4]triazolo[1,5-a]pyridin-2-yl]-succinamic acid]
CNCCCC(=O)Nc1nc2c(-c3cccc(C(F)(F)F)c3)c(C)c(-c3ccnn3-c3ccc(C#N)cc3)cn2n1 [Example 56, N-[6-[2-(4-Cyano-phenyl)-2H-pyrazol-3-yl]-7-methyl-8-(3-trifluoromethyl-phenyl)-[1,2,4]triazolo[1,5-a]pyridin-2-yl]-4-methylamino-butyramide]
CC(=O)N1CCC(NC(=O)Nc2nc3c(-c4cccc(C(F)(F)F)c4)c(C)c(-c4ccnn4-c4ccc(C#N)cc4)cn3n2)CC1 [Example 57, 1-(1-Acetyl-piperidin-4-yl)-3-[6-[2-(4-cyano-phenyl)-2H-pyrazol-3-yl]-7-methyl-8-(3-trifluoromethyl-phenyl)-[1,2,4]triazolo[1,5-a]pyridin-2-yl]-urea]
Cc1c(-c2ccnn2-c2ccc(C#N)cc2)cn2nc(NC(=O)NC3CCN(S(C)(=O)=O)CC3)nc2c1-c1cccc(C(F)(F)F)c1 [Example 58, 1-[6-[2-(4-Cyano-phenyl)-2H-pyrazol-3-yl]-7-methyl-8-(3-trifluoromethyl-phenyl)-[1,2,4]triazolo[1,5-a]pyridin-2-yl]-3-(1-methanesulfonyl-piperidin-4-yl)-urea]
Cc1c(-c2ccnn2-c2ccc(C#N)cc2)cn2nc(NCCCC(=O)N(C)CCN(C)C)nc2c1-c1cccc(C(F)(F)F)c1 [Example 60, 4-[6-[2-(4-Cyano-phenyl)-2H-pyrazol-3-yl]-7-methyl-8-(3-trifluoromethyl-phenyl)-[1,2,4]triazolo[1,5-a]pyridin-2-ylamino]-N-(2-dimethylamino-ethyl)-N-methyl-butyramide formate salt]
Cc1c(-c2nc(N)nn2-c2ccc(C#N)cc2)cn2nc(N)nc2c1-c1cccc(C(F)(F)F)c1 [Example 61, 4-{3-Amino-5-[2-amino-7-methyl-8-(3-trifluoromethyl-phenyl)-[1,2,4]triazolo[1,5-a]pyridin-6-yl]-[1,2,4]triazol-1-yl}-benzonitrile]
